“And” between values parts separate entries of the source, which are not always exact repeats. Identical values can stand only once. Like-named read-outs stand apart in the source and are kept apart here.
Assays:
[1] = Therapeutic agent brain penetration studies (brain concentration); format: in vivo, wildtype FVB mice; details: for concentration at 1 h: female; for concentration at 1 h / Brain concentration of loperamide, individual animals / Brain concentration of loperamide, mean: 1 h
Description: The drug was administered within 1 h of preparation.
Animals received food and water ad libitum.
(§1) Samples were pre-treated as follows. […] 1000 μl of diethyl ether was added.

[2] = Plasma concentrations in the brain penetration studies; details: for concentration at 60 min / concentration at 5 min / concentration at 30 min / AUC(0-t): female, FVB (wildtype), mouse, in vivo; for AUC(0-t): iv
Description: The following elacridar nanoparticle suspension was used in these experiments: 5% elacridar w/w plus 1% w/w TPGS, where 2 ml of NP formulation was diluted with 8 ml of 20% TPGS to give a final elacridar concentration of 10 mg/ml.
The drug was mixed, sonicated and administered within 1 h. The dose used was 50 mg/kg (10 μl/g).
The drug was mixed by vortex and administered within 1.5 h. The dose used was 33 mg/kg (10 μl/g).
The drug was administered within 1 h of preparation. The dose used was 5 mg/kg (5 μl/g).
Non-transgenic (wildtype) FVB mice, females, aged 8 to 10 weeks were used. Animals received food and water ad libitum. Mice in the treatment group (n=5) received elacridar NP formulation orally by gavage in the morning (9-10 am). Mice in the control group (n=5) received no elacridar. All mice (treatment and control group) received the therapeutic agent by i.v. injection in the tail vein in the afternoon (3-4 pm). Blood samples (50 μl) were drawn by bleeding from the tip of the tail at 5 min and 30 min after drug administration. At 1 h after API administration the animals were anesthetized using isoflurane and blood was drawn by cardiac puncture. Next, the animal was killed by cervical dislocation and the brains were harvested. Blood was kept on ice until centrifugation (5 min at 5000 g) within 2 h. Brains were kept on ice for weighing and stored at −20° C. until homogenization. Brains were homogenized in 3 ml of 1% w/v of bovine serum albumin in water.
The mice received elacridar at the standard dose of 100 mg/kg. […] The i.v. administration route was selected for the therapeutic agent in order to achieve the most similar plasma exposure of the therapeutic agent between animals receiving therapeutic agent alone or therapeutic agent with elacridar.
Samples were pre-treated as follows. Plasma (5 to 100 μl) was made up to 100 μl with blank human plasma or brain homogenate (100 μl) and pipetted into a 2 ml eppendorf vial. 50 μl of the internal standard (IS) solution (1000 nM of the deuterated analyte) in acetonitrile:water (30:70; v/v) was added. 1000 μl of diethyl ether was added. Tubes were vigorously mixed for at least 5 min then centrifuged (5 min at 5000 g) before being placed in a bath of ethanol with dry-ice in order to freeze the aqueous bottom layer. The organic supernatant was decanted into a clean 1.5 ml Brand vial and evaporated under vacuum in a Speed-Vac (Savant).
For HPLC-MS/MS analyses, the HPLC systems consisted of an Ultimate DGP-3600A pump with a SRD-3600 Solvent Rack and a model WPS-3000TSL autosampler (Dionex, Sunnyvale, Calif., USA). The HPLC column (100×2.1 mm) was packed with 3 um C18 Extend material. The column effluent was guided to an electrospray ionization (ESI) source of an AP13000 mass spectrometer (ABSciex). The mobile phase composition was: Mobile phase A was 0.1% formic acid in water; and Mobile phase B was Methanol (LC-MS quality, Merck).
Pharmacokinetic analyses were performed using the Microsoft Excel add-in program PKsolver (see e.g., Ward K W et al., J Pharmacol Exp Ther 2004; 310: 703-9, which is incorporated herein in its entirety). Calculations for oral administrations were done by the non-compartmental analyses—extravascular model, whereas we used the non-compartmental analysis—bolus model for i.v. injections. The maximum plasma levels (Cmax) were calculated by comparing the means of the plasma levels at each time point. The Tmax is considered the time point at which the Cmax was reached. The half-life (T½) was calculated from the final log-linear part of the plasma concentration-time curves. The area-under-the-curve for the plasma concentration (plasma AUC) was calculated using the linear trapezoidal rule. Both the AUC from time=0 to the last sampling point (48 h) as well as the AUC extrapolated to infinity was calculated. The oral bioavailability was calculated based on the AUC(0-inf) values. Student t-test was used to compare the means of groups where applicable.

[3] = design: species or system female Sprague-Dawley rats; details: rat, in vivo, iv, 5 mg/kg
Description: Studies were conducted in female Sprague-Dawley rats. […] The selected 100 mg/kg dose is well above the level where nonlinear pharmacokinetics have been documented. Ten animals were used at weekly intervals between each dosing to allow washout of the drug from the previous dosing.
Elacridar suspension formulation was prepared by weighing 100.03 mg of elacridar, which was first suspended in 5 ml of water, followed by 5 ml of vehicle solution (2.5% w/v of hydroxypropyl methyl cellulose (HPMC) and 2% v/v of Tween 80). This suspension was stirred for about 2.5 hours prior to dosing. The final concentration was 10 mg/ml. This suspension was given at 10 μl per gram body weight to achieve a dose level of 100 mg/kg
Elacridar nanoparticle (NP) suspensions were used as received, except for a final 5-fold dilution step to obtain a NP suspension of 10 mg/ml of elacridar.
There were three study groups: 1) Elacridar Suspension (n=4); 2) Elacridar TPGS nanoparticles (n=5); and 3) Elacridar Poloxamer nanoparticles (n=5). All animals received elacridar orally by gavage under light isoflurane anesthesia. The animals were fasted for a period of 3 h before drug administration. Food pellets were returned to the cages after the 4 h sampling point. Blood samples from the tail vein at: 15, 30 min, 1, 2, 4, 7, 24, 30 and 48 hours. Samples were kept on ice and centrifuged within 2 h to separate plasma. Plasma was stored at −20° C.
Formulation for i.v. administration was prepared by weighing 61.12 mg of elacridar and dissolving this in 2.056 ml of DMSO. The final concentration was 30 mg/ml. Animals (n=4) received […] per gram body weight (5 mg/kg). Blood samples were taken from the tail vein at: 5, 15, 30 min, 1, 2, 4, 7, 24, 30 and 48 h. Samples were kept on ice and centrifuged within 2 h to separate plasma. Plasma was stored at −20° C.
as §1

[4] = imatinib with elacridar, 30 min
[5] = imatinib with elacridar, 60 min
[6] = Docetaxel plasma concentration, mean
[7] = loperamide 5 mg/kg i.v. with elacridar TPGS NP 100 mg/kg p.o. about 6 h before

## imatinib
[1]; mouse, in vivo, iv
  complications of dosing: without complications
[2]; imatinib alone, 5 min
  Imatinib plasma concentration, individual animals: 49100 ng/mL and 50400 ng/mL and 38200 ng/mL and 61300 ng/mL and 48900 ng/mL
  Imatinib plasma concentration, mean: 49580.0 ng/mL
[2]; imatinib alone, 30 min
  Imatinib plasma concentration, individual animals: 6590 ng/mL and 11500 ng/mL and 7690 ng/mL and 13200 ng/mL and 11600 ng/mL
  Imatinib plasma concentration, mean: 10116.0 ng/mL
[2]; imatinib alone, 60 min
  Imatinib plasma concentration, individual animals: 1920 ng/mL and 1260 ng/mL and 2350 ng/mL and 2050 ng/mL and 2760 ng/mL
  Imatinib plasma concentration, mean: 2068.0 ng/mL
[2]; imatinib with elacridar, 5 min
  Imatinib plasma concentration, individual animals: 90800 ng/mL and 43500 ng/mL and 50000 ng/mL and 34400 ng/mL and 37900 ng/mL
  Imatinib plasma concentration, mean: 51320.0 ng/mL
[2]; [4]
  Imatinib plasma concentration, individual animals: 11000 ng/mL and 7860 ng/mL and 11700 ng/mL and 8910 ng/mL and 12600 ng/mL
  Imatinib plasma concentration, mean: 10414.0 ng/mL
[2]; [5]
  Imatinib plasma concentration, individual animals: 3630 ng/mL and 5580 ng/mL and 3840 ng/mL and 4710 ng/mL and 4100 ng/mL
  Imatinib plasma concentration, mean: 4372.0 ng/mL

## CC(=O)O[C@@]12CO[C@@H]1C[C@H](O)[C@@]1(C)C(=O)[C@H](O)C3=C(C)[C@@H](OC(=O)[C@H](O)[C@@H](NC(=O)OC(C)(C)C)c4ccccc4)C[C@@](O)([C@@H](OC(=O)c4ccccc4)[C@H]21)C3(C)C [docetaxel]
[1]; mouse, in vivo, iv
  complications of dosing: without complications
[2]; Docetaxel plasma concentration, individual animals
  concentration at 60 min: 3030 ng/mL
[2]; [6]
  concentration at 5 min: 206000 ng/mL
  concentration at 30 min: 12200 ng/mL
  concentration at 60 min: 2570 ng/mL
[2]; 33 mg/kg, Docetaxel plasma AUC(0-1 h), individual animals
  AUC(0-t): 54100 ng·h/mL
[2]; 33 mg/kg, Docetaxel plasma AUC(0-1 h), mean
  AUC(0-t): 53300 ng·h/mL

## CN(C)C(=O)C(CCN1CCC(O)(c2ccc(Cl)cc2)CC1)(c1ccccc1)c1ccccc1 [loperamide]
[1]; FVB mice, i.v., control group (no elacridar)
  complications of dosing: went smoothly
[1]; FVB mice, loperamide 5 mg/kg i.v. and elacridar NP 100 mg/kg p.o.
  complications of dosing: one animal died within 5 minutes after drug administration, whereas another animal had to be sacrificed at 45 min
[1]; FVB (wildtype), mouse, in vivo, loperamide 5 mg/kg i.v. with elacridar TPGS NP 100 mg/kg p.o. about 6 h before, read-out: Brain concentration of loperamide, individual animals
  concentration at 1 h: 2910 ng/g
[1]; FVB, mouse, in vivo, 5 mg/kg, loperamide 5 mg/kg i.v. alone, read-out: Brain concentration of loperamide, mean
  concentration at 1 h: 73 ng/g
[1]; FVB, mouse, in vivo, loperamide 5 mg/kg i.v. with elacridar TPGS NP 100 mg/kg p.o. about 6 h before, read-out: Brain concentration of loperamide, mean
  concentration at 1 h: 3700 ng/g
[1]; loperamide 5 mg/kg i.v. alone
  Brain concentration of loperamide, individual animals: 83.8 ng/g and 79.4 ng/g and 84.1 ng/g and 78.1 ng/g and 41.6 ng/g
  Brain concentration of loperamide, mean: 73.4 ng/g
[1]; [7]
  Brain concentration of loperamide, individual animals: 4376.5 ng/g and 4288.7 ng/g and 3981.2 ng/g and 2933.5 ng/g
  Brain concentration of loperamide, mean: 3697.8 ng/g
[1]; with vs without elacridar TPGS NP 100 mg/kg p.o., brain at 1 h
  increase of brain penetration by concomitant elacridar NP: 50 fold
[2]; AUC 5 min to 1 h, with vs without elacridar NP
  change of plasma AUC by concomitant elacridar dosing: remained unchanged
[2]; 5 mg/kg, Loperamide plasma concentration, mean, loperamide alone, 5 min
  concentration at 5 min: 1030 ng/mL
[2]; 5 mg/kg, Loperamide plasma concentration, mean, loperamide alone, 30 min
  concentration at 30 min: 221 ng/mL
[2]; 5 mg/kg, Loperamide plasma concentration, mean, loperamide alone, 60 min
  concentration at 60 min: 81.4 ng/mL
[2]; Loperamide plasma concentration, mean, loperamide with elacridar, 5 min
  concentration at 5 min: 989 ng/mL
[2]; Loperamide plasma concentration, mean, loperamide with elacridar, 30 min
  concentration at 30 min: 184 ng/mL
[2]; Loperamide plasma concentration, mean, loperamide with elacridar, 60 min
  concentration at 60 min: 140 ng/mL
[2]; 5 mg/kg, Loperamide plasma AUC(0-1 h), individual animals, loperamide alone
  AUC(0-t): 740 ng·h/mL
[2]; 5 mg/kg, Loperamide plasma AUC(0-1 h), individual animals, loperamide with elacridar
  AUC(0-t): 704 ng·h/mL
[2]; 5 mg/kg, Loperamide plasma AUC(0-1 h), mean, loperamide alone
  AUC(0-t): 747 ng·h/mL
[2]; 5 mg/kg, Loperamide plasma AUC(0-1 h), mean, loperamide with elacridar
  AUC(0-t): 744 ng·h/mL
[2]; loperamide alone
  Loperamide plasma AUC(0-1 h), individual animals: 43377.5 ng·min/mL and 43440.0 ng·min/mL and 47625.0 ng·min/mL and 45132.5 ng·min/mL
[2]; loperamide alone, 5 min
  Loperamide plasma concentration, individual animals: 2500.0 ng/mL and 430.0 ng/mL and 599.0 ng/mL and 679.0 ng/mL and 925.0 ng/mL
[2]; loperamide alone, 30 min
  Loperamide plasma concentration, individual animals: 191.0 ng/mL and 166.0 ng/mL and 168.0 ng/mL and 354.0 ng/mL and 226.0 ng/mL
[2]; loperamide alone, 60 min
  Loperamide plasma concentration, individual animals: 111.0 ng/mL and 87.5 ng/mL and 88.0 ng/mL and 26.0 ng/mL and 94.5 ng/mL
[2]; loperamide with elacridar
  Loperamide plasma AUC(0-1 h), individual animals: 44405.0 ng·min/mL and 46040.0 ng·min/mL and 45978.8 ng·min/mL
[2]; loperamide with elacridar, 5 min
  Loperamide plasma concentration, individual animals: 1220.0 ng/mL and 306.0 ng/mL and 376.0 ng/mL and 511.0 ng/mL and 2530.0 ng/mL
[2]; loperamide with elacridar, 30 min
  Loperamide plasma concentration, individual animals: 115.0 ng/mL and 178.0 ng/mL and 163.0 ng/mL and 282.0 ng/mL
[2]; loperamide with elacridar, 60 min
  Loperamide plasma concentration, individual animals: 106.0 ng/mL and 134.0 ng/mL and 270.5 ng/mL and 48.3 ng/mL

## DMSO
[3]
  AUC(0-48 h): 260.3 µg·min/mL
  AUC(0-inf): 272.2 µg·min/mL
  Cmax: 826.5 ng/mL
  F: 100.0%
  Tmax: 0 h
  T½: 6.9 h

— patent US20220133679A1, “EFFLUX INHIBITOR COMPOSITIONS AND METHODS OF TREATMENT USING THE SAME” (Izumi Technology, LLC, priority 2012, published 2022)
